Measurements: patent publication US20030086820A1 (priority 2001, published 2003)
Like-named read-outs stand apart in the source and are kept apart here.

How the values were obtained:
[1] = system: ileal fluid dependent organism (IFDO)
BSA protein = BSA protein (Bos taurus, UniProt P02769)
prion protein (PRP^SC) = prion protein (PRP^SC) (Homo sapiens, UniProt P04156)

BSA protein, sequence (P02769 25-607 limits assumed): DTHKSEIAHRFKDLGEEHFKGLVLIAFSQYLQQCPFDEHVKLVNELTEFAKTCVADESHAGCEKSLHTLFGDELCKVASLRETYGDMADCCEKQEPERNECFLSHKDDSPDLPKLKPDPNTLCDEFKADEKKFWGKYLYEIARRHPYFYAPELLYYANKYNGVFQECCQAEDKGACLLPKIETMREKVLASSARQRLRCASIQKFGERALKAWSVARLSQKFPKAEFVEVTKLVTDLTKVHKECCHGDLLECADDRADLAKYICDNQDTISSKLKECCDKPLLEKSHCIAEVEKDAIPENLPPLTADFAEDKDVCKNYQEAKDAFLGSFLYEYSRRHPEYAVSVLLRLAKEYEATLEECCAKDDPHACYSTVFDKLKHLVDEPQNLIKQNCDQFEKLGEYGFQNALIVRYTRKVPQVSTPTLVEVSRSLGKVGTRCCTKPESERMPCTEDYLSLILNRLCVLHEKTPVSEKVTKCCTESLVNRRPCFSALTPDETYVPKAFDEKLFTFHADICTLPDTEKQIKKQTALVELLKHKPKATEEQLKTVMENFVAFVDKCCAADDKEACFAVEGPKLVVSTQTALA

Q: For `OO` [Vapor Hydrogen Peroxide, hydrogen peroxide], which “log reduction in IFDO” value [1] is on record?
A: six

Q: What about the “number of colonies developed on the vacuum treated samples” value [1] of the same molecule?
A: less than 1 log

Q: And the “deactivating the prion model (IFDO): vacuum pulses versus atmospheric conditions” value ([1]; FIG. 9, atmospheric 1.5 mg/l 30° C. or 3 mg/l 40° C., 15 minutes)?
A: more effective

Q: And the “log reduction in IFDO” value (IFDO organisms)?
A: six

Q: What about the “number of colonies developed from IFDO remaining on the vacuum treated samples” value (IFDO organisms) of the same molecule?
A: less than 1 log

Q: What about the “breakdown of protein (gel electrophoresis)” value (BSA protein) of the same molecule?
A: effectively destroys proteins

Q: What about the “PRP^SC Detected” value (prion protein (PRP^SC); 25° C., 1.7 mg/L, 3 hours exposure, atmospheric pressure) of the same molecule?
A: No

Q: And the “PRP^SC Detected” value (prion protein (PRP^SC); 30° C., 2.2 mg/L, vacuum conditions, six pulses of vapor)?
A: No

Q: What about the “PRP^SC Detected” value (prion protein (PRP^SC); 50° C., 7.0 mg/L, vacuum conditions, three pulses of vapor) of the same molecule?
A: No

Q: And the “destruction of the harmful form of the prion protein” value (prion protein (PRP^SC); summary of Table 7, no precleaning step)?
A: effective at destruction of the harmful form of the prion protein
